Reference: article PMC9106035, “Synthesis, X-ray Structure and Biological Studies of New Self-Assembled Cu(II) Complexes Derived from s-Triazine Schiff Base Ligand” (Molecules, 2022)
pIC50: −log10 of the molar value. Converted amounts (≈) assume the structure as drawn.

Columns and labels:
[1] = system: lung carcinoma A-549 cell line; experiment: Anticancer activity, MTT viability assay; assay type: cell-based; conditions: for Inhibitory % / Viability %: Table S9; for pIC50: A-549 cells, 24 h, MTT; for SI = CC50/IC50: CC50 (MRC-5) / IC50 (A-549)
Experimental: The studied compounds were examined for their anticancer activity against the lung carcinoma A-549 cell line.
(§1) Method S4 Evaluation of Cytotoxic activity
(§2) The cells were propagated in Dulbecco’s modified Eagle’s medium (DMEM) supplemented with 10% heat-inactivated fetal bovine serum, 1 % L-glutamine, HEPES buffer and 50µg/mL Gentamycin. All cells were maintained at 37 °C in a humidified atmosphere with 5% CO2 and were subcultured tw o times a week.
(§3) Cytotoxicity evaluation using viability assay
(§4) For cytotoxicity assay, the cells were seeded in 96-well plate at a cell concentration of 1×10^4 cells per well in 100µl of growth medium. Fresh medium containing different concentrations of the test sample was added after 24 h of seeding. Serial two-fold dilutions of the tested chemical compound were added to confluent cell monolayers dispensed into 96-well, flat-bottomed microtiter plates (Falcon, NJ, USA) using a multichannel pipette. The microtiter plates were incubated at 37 °C in a humidified incubator with 5% CO2 for a period of 24 h. Three wells were used for each concentration of the test sample. Control cells were incubated without test sample and with or without DMSO. The little percentage of DMSO present in the […]
(§5) cells for at 37°C, for 24 h, the viabl e cells yield was determined by the MTT test.
(§6) Briefly, the media was removed from the 96 well plate and replaced with 100 µL of fresh culture DMEM m edium without phenol red then 10 µL of the 12 mM MTT stock solution (5 mg of MTT in 1 mL of PBS) to each well including the untreated controls. The 96 well plates were then incubated at 37°C and 5% CO2 for 4 hours. An 85 µL aliquot of the media was removed from t he wells, and 50 µL of DMSO was added to each well and mixed thoroughly with the pipette and incubated at 37°C for 10 min. Then, the optical density was measured at 590 nm with the microplate reader (SunRise, TECAN, Inc, USA) to determine the number of viable cells and the percentage of viability was calculat ed as [(ODt/ODc)]x100% where ODt i s the mean optical density of wells treated with the tested s ample and ODc is the mean optical density of untreated cells. The relation between surviving cells and drug concentration is plotted to get the survival curve of each tumor cell line after treatment with the specified compound. The 50% inhibitory concentration (IC50), the concentration required to cause t oxic effects in 50% of intact cells, was estimated from graphic plots of the dose response curve for each conc. using Graphpad Prism software (San Diego, […]

[2] = system: normal human lung fibroblast MRC-5 cells; experiment: Cytotoxic activity on normal cells, MTT viability assay; assay type: cell-based; conditions: for Inhibitory % / Viability %: Table S14
Experimental: In this regard, the selectivity index (SI) was calculated as the ratio of cytotoxic effect on the normal cell line to the cytotoxic effect on the cancer cell line.
as §1, §2, §3, §4, §5, §6

[3] = DPPH radical scavenging assay; assay type: biochemical; conditions: for IC50 (DPPH scavenging): antioxidant activity
Experimental: The studied Cu(II) complexes and the free ligands were assessed for their antioxidant activity levels using an α,α-diphenyl-β-picrylhydrazyl (DPPH) scavenging assay, and the results are given in Table 7. […] The results indicated better antioxidant activity for DMAT than for DMOHT, indicating the effect of the substituent at the phenyl moiety on the antioxidant activity level of the free ligand. […] On the other hand, the Cu(II) complexes have improved levels of antioxidant activity compared to the free ligands.
Method S3 DPPH Radical Scavenging Activity:
Freshly prepared (0.004 %w/v) methanol solution of 2,2-diphenyl-1-pi crylhydrazyl (DPPH) radical was prepared and stored at 10 °C in dark place. A methanolic solution of the test compound was prepared using the same procedure. A 40 uL aliquot of the methanol solution was added to 3mL of DPPH solution. Absorbance measurements were recorded immediately with a UV-visible spectrophotometer (Milton Roy, Spectronic 1201). The decrease in absorbance at 515 nm was determined continuously, with data being recorded at 1 min intervals until the absorbance stabilized (16 min). The absorbance of the DPPH radical without antioxidant (control) and the reference compound ascorbic acid were also measured.
All the determinations were performed in three replicates and averaged. The percentage inhibition (PI) of the DPPH radical was calculated according to the […]
PI = [{(AC- AT)/ AC} x 100] (1)
Where AC = Absorbance of the control at t = 0 min and AT = absorbance of the sample+DPPH at t = 16 min. The 50% inhibitory concentration (IC50), the concentration required t o inhibit DPPH radical by 50%, was estimated from graphic plots of the dose respons e curve.

CC(=NNc1nc(N2CCOCC2)nc(N2CCOCC2)n1)c1ccccc1[O-].O=[N+]([O-])[O-].[Cu+2] [Complex 3, [Cu(DMOT)(NO3)]]
Inhibitory % ([1]; A-549, sample conc. 1.9 µM): 0%
Viability % ([1]; A-549, sample conc. 1.9 µM): 100%
Inhibitory % ([1]; A-549, sample conc. 3.8 µM): 1.37%
Viability % ([1]; A-549, sample conc. 3.8 µM): 98.63%
Inhibitory % ([1]; A-549, sample conc. 7.4 µM): 7.25%
Viability % ([1]; A-549, sample conc. 7.4 µM): 92.75%
Inhibitory % ([1]; A-549, sample conc. 14.9 µM): 19.54%
Viability % ([1]; A-549, sample conc. 14.9 µM): 80.46%
Inhibitory % ([1]; A-549, sample conc. 29.8 µM): 32.81%
Viability % ([1]; A-549, sample conc. 29.8 µM): 67.19%
Inhibitory % ([1]; A-549, sample conc. 59.6 µM): 50.72%
Viability % ([1]; A-549, sample conc. 59.6 µM): 49.28%
Inhibitory % ([1]; A-549, sample conc. 119.3 µM): 63.38%
Viability % ([1]; A-549, sample conc. 119.3 µM): 36.62%
Inhibitory % ([1]; A-549, sample conc. 238.6 µM): 76.06%
Viability % ([1]; A-549, sample conc. 238.6 µM): 23.94%
Inhibitory % ([1]; A-549, sample conc. 477.1 µM): 88.72%
Viability % ([1]; A-549, sample conc. 477.1 µM): 11.28%
Inhibitory % ([1]; A-549, sample conc. 954.2 µM): 95.13%
Viability % ([1]; A-549, sample conc. 954.2 µM): 4.87%
pIC50 [1]: 4.23
SI = CC50/IC50 [1]: 2.96
SI = CC50/IC50 ([1]; listed as 3): 2.97
Inhibitory % ([2]; MRC-5, sample conc. 1.9 µM): 0%
Viability % ([2]; MRC-5, sample conc. 1.9 µM): 100%
Inhibitory % ([2]; MRC-5, sample conc. 3.8 µM): 0%
Viability % ([2]; MRC-5, sample conc. 3.8 µM): 100%
Inhibitory % ([2]; MRC-5, sample conc. 7.4 µM): 0%
Viability % ([2]; MRC-5, sample conc. 7.4 µM): 100%
Inhibitory % ([2]; MRC-5, sample conc. 14.9 µM): 1.37%
Viability % ([2]; MRC-5, sample conc. 14.9 µM): 98.63%
Inhibitory % ([2]; MRC-5, sample conc. 29.8 µM): 10.83%
Viability % ([2]; MRC-5, sample conc. 29.8 µM): 89.17%
Inhibitory % ([2]; MRC-5, sample conc. 59.6 µM): 23.08%
Viability % ([2]; MRC-5, sample conc. 59.6 µM): 76.92%
Inhibitory % ([2]; MRC-5, sample conc. 119.3 µM): 42.86%
Viability % ([2]; MRC-5, sample conc. 119.3 µM): 57.14%
Inhibitory % ([2]; MRC-5, sample conc. 238.6 µM): 58.72%
Viability % ([2]; MRC-5, sample conc. 238.6 µM): 41.28%
Inhibitory % ([2]; MRC-5, sample conc. 477.1 µM): 79.35%
Viability % ([2]; MRC-5, sample conc. 477.1 µM): 20.65%
Inhibitory % ([2]; MRC-5, sample conc. 954.2 µM): 92.46%
Viability % ([2]; MRC-5, sample conc. 954.2 µM): 7.54%
CC50 ([2]; MRC-5 cells, 24 h, MTT): 173 µM
DPPH Scavenging % ([3]; Conc. 2.5 μg/mL): 11.46%
DPPH Scavenging % ([3]; Conc. 5 μg/mL): 18.73%
DPPH Scavenging % ([3]; Conc. 10 μg/mL): 32.95%
DPPH Scavenging % ([3]; Conc. 20 μg/mL): 51.32%
DPPH Scavenging % ([3]; Conc. 40 μg/mL): 68.9%
DPPH Scavenging % ([3]; Conc. 80 μg/mL): 81.47%
DPPH Scavenging % ([3]; Conc. 160 μg/mL): 85.92%
DPPH Scavenging % ([3]; Conc. 320 μg/mL): 90.81%
DPPH Scavenging % ([3]; Conc. 640 μg/mL): 94.29%
DPPH Scavenging % ([3]; Conc. 1280 μg/mL): 95.76%
IC50 (DPPH scavenging) [3]: 19.31 ± 0.73 µg/mL

CC(=NNc1nc(N2CCOCC2)nc(N2CCOCC2)n1)c1ccccc1O [DMOHT, 2-(1-(2-(4,6-dimorpholino-1,3,5-triazin-2-yl)hydrazono)ethyl)phenol]
SI = CC50/IC50 [1]: 1.77
viability at 2.5 µM ([1]; Homo sapiens, A549, A-549, sample conc. 2.5 µM, Table S7): 100%
inhibition at 2.5 µM ([1]; Homo sapiens, A549, A-549, sample conc. 2.5 µM, Table S7, read-out: Inhibitory %): 0%
viability at 5 µM ([1]; Homo sapiens, A549, A-549, sample conc. 5.0 µM, Table S7): 100%
inhibition at 5 µM ([1]; Homo sapiens, A549, A-549, sample conc. 5.0 µM, Table S7, read-out: Inhibitory %): 0%
viability at 9.8 µM ([1]; Homo sapiens, A549, A-549, sample conc. 9.8 µM, Table S7): 100%
inhibition at 9.8 µM ([1]; Homo sapiens, A549, A-549, sample conc. 9.8 µM, Table S7, read-out: Inhibitory %): 0%
viability at 19.5 µM ([1]; Homo sapiens, A549, A-549, sample conc. 19.5 µM, Table S7): 100%
inhibition at 19.5 µM ([1]; Homo sapiens, A549, A-549, sample conc. 19.5 µM, Table S7, read-out: Inhibitory %): 0%
viability at 39.1 µM ([1]; Homo sapiens, A549, A-549, sample conc. 39.1 µM, Table S7): 100%
inhibition at 39.1 µM ([1]; Homo sapiens, A549, A-549, sample conc. 39.1 µM, Table S7, read-out: Inhibitory %): 0%
viability at 78.2 µM ([1]; Homo sapiens, A549, A-549, sample conc. 78.2 µM, Table S7): 98.2%
inhibition at 78.2 µM ([1]; Homo sapiens, A549, A-549, sample conc. 78.2 µM, Table S7, read-out: Inhibitory %): 1.75%
viability at 156.5 µM ([1]; Homo sapiens, A549, A-549, sample conc. 156.5 µM, Table S7): 90.7%
inhibition at 156.5 µM ([1]; Homo sapiens, A549, A-549, sample conc. 156.5 µM, Table S7, read-out: Inhibitory %): 9.33%
viability at 312.9 µM ([1]; Homo sapiens, A549, A-549, sample conc. 312.9 µM, Table S7): 75.1%
inhibition at 312.9 µM ([1]; Homo sapiens, A549, A-549, sample conc. 312.9 µM, Table S7, read-out: Inhibitory %): 24.9%
viability at 625.8 µM ([1]; Homo sapiens, A549, A-549, sample conc. 625.8 µM, Table S7): 43.9%
inhibition at 625.8 µM ([1]; Homo sapiens, A549, A-549, sample conc. 625.8 µM, Table S7, read-out: Inhibitory %): 56.1%
viability at 1251.7 µM ([1]; Homo sapiens, A549, A-549, sample conc. 1251.7 µM, Table S7): 21.5%
inhibition at 1251.7 µM ([1]; Homo sapiens, A549, A-549, sample conc. 1251.7 µM, Table S7, read-out: Inhibitory %): 78.5%
pIC50 ([1]; Homo sapiens, A549): 3.25
inhibition at 2.5 µM ([2]; Homo sapiens, MRC5, MRC-5, sample conc. 2.5 µM, Table S12, read-out: Inhibitory %): 0%
inhibition at 5 µM ([2]; Homo sapiens, MRC5, MRC-5, sample conc. 5.0 µM, Table S12, read-out: Inhibitory %): 0%
inhibition at 9.8 µM ([2]; Homo sapiens, MRC5, MRC-5, sample conc. 9.8 µM, Table S12, read-out: Inhibitory %): 0%
inhibition at 19.5 µM ([2]; Homo sapiens, MRC5, MRC-5, sample conc. 19.5 µM, Table S12, read-out: Inhibitory %): 0%
inhibition at 39.1 µM ([2]; Homo sapiens, MRC5, MRC-5, sample conc. 39.1 µM, Table S12, read-out: Inhibitory %): 0%
inhibition at 78.2 µM ([2]; Homo sapiens, MRC5, MRC-5, sample conc. 78.2 µM, Table S12, read-out: Inhibitory %): 0%
inhibition at 156.5 µM ([2]; Homo sapiens, MRC5, MRC-5, sample conc. 156.5 µM, Table S12, read-out: Inhibitory %): 2.14%
inhibition at 312.9 µM ([2]; Homo sapiens, MRC5, MRC-5, sample conc. 312.9 µM, Table S12, read-out: Inhibitory %): 10.4%
inhibition at 625.8 µM ([2]; Homo sapiens, MRC5, MRC-5, sample conc. 625.8 µM, Table S12, read-out: Inhibitory %): 32.4%
inhibition at 1251.7 µM ([2]; Homo sapiens, MRC5, MRC-5, sample conc. 1251.7 µM, Table S12, read-out: Inhibitory %): 61.8%
DPPH Scavenging % ([3]; Conc. 2.5 μg/mL): 5.73%
DPPH Scavenging % ([3]; Conc. 5 μg/mL): 10.48%
DPPH Scavenging % ([3]; Conc. 10 μg/mL): 19.87%
DPPH Scavenging % ([3]; Conc. 20 μg/mL): 31.95%
DPPH Scavenging % ([3]; Conc. 40 μg/mL): 47.09%
DPPH Scavenging % ([3]; Conc. 80 μg/mL): 61.32%
DPPH Scavenging % ([3]; Conc. 160 μg/mL): 73.64%
DPPH Scavenging % ([3]; Conc. 320 μg/mL): 84.93%
DPPH Scavenging % ([3]; Conc. 640 μg/mL): 88.54%
DPPH Scavenging % ([3]; Conc. 1280 μg/mL): 93.87%
IC50 (DPPH scavenging) [3]: 48.2 ± 1.08 µg/mL (≈ 121 µM)
